Here are results for 8 molecules from patent publication US20010036952A1, “Small molecule pipecolic acid derivative hair growth compositions and uses” (GPI NIL Holdings, Inc., priority 1997, published 2001).

The target of one experiment is FKBP12 (Homo sapiens, UniProt P62942). Put plainly: Ki test procedure: inhibition of peptidyl-prolyl isomerase (rotamase) activity, chymotrypsin-coupled assay. Type of experiment: biochemical. As to conditions: FKBP rotamase, substrate N-succinyl-Ala-Ala-Pro-Phe-p-nitroanilide; read-out: Ki (apparent Ki, rotamase inhibition). From the text: The inhibition of the prolyl peptidyl cis-trans isomerase activity of FKBP may be measured as an indicator of this affinity.
Inhibition of the peptidyl-prolyl isomerase (rotamase) activity of the compounds used in the inventive methods and pharmaceutical compositions can be evaluated by known methods described in the literature (Harding et al., Nature, 1989, 341:758-760; Holt et al. J. Am. Chem. Soc., 115:9923-9938).
The cis-trans isomerization of an alanine-proline bond in a model substrate, N-succinyl-Ala—Ala—Pro—Phe- p-nitroanilide, is monitored spectrophotometrically in a chymotrypsin-coupled assay, which releases para-nitroanilide from the trans form of the substrate. The inhibition of this reaction caused by the addition of different concentrations of inhibitor is determined, and the data is analyzed as a change in first-order rate constant as a function of inhibitor concentration to yield the apparent Ki values.
In a plastic cuvette are added […] of ice cold assay buffer (25 mM HEPES, pH 7.8, 100 mM NaCl), […] of FKBP (2.5 mM in 10 mM Tris-Cl pH 7.5, 100 mM NaCl, 1 mM dithiothreitol), […] of chymotrypsin (50 mg/ml in 1 mM HCl) and […] of test compound at various concentrations in dimethyl sulfoxide. The reaction is initiated by the addition of 5 mL of substrate (succinyl-Ala—Phe—Pro—Phe-para-nitroanilide, 5 mg/mL in 2.35 mM LiCl in trifluoroethanol).
The absorbance at 390 nm versus time is monitored for 90 seconds using a spectrophotometer and the rate constants are determined from the absorbance versus time data files.

The subject of another experiment is hair growth. Particulars: topical, but not oral, application; cited from earlier work.

Sequence of FKBP12 (P62942 whole entry, species assumed): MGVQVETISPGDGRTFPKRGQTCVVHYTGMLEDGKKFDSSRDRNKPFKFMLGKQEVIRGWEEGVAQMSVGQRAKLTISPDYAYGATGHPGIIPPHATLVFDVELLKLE

`O=C(C(=O)N1CCCCC1C(=O)OCc1ccccc1)c1ccccc1` (centres unmarked) [Compound 10]: the Ki at FKBP12 stood at 1500 nM.

As for `O=C(C(=O)N1CCCCC1C(=O)OCCCCc1ccccc1)c1ccccc1` (centres unmarked) [Compound 13], the Ki at FKBP12 worked out at 350 nM. `O=C(C(=O)N1CCCCC1C(=O)OCCc1ccccc1)c1ccccc1` (centres unmarked) [Compound 14]: the Ki at FKBP12 worked out at 1100 nM. `O=C(C(=O)N1CCCCC1C(=O)OCCCCC1CCCCC1)c1ccccc1` (centres unmarked) [Compound 15]: the Ki on FKBP12 was determined as 400 nM. For the molecule `COC(=O)C(=O)N1CCCCC1C(=O)OCc1ccccc1` (centres unmarked) [Compound 16], the Ki on FKBP12 amounted to 80000 nM. Same read-out and setting: under `O=C(C(=O)N1CCCCC1C(=O)OCc1ccccc1)c1ccco1` (centres unmarked) [Compound 20] stands 3000 nM; under `COc1cc(C(=O)C(=O)N2CCCCC2C(=O)OCCCCc2ccccc2)cc(OC)c1OC` (centres unmarked) [Compound 23], 19 nM.

As to `C=CC[C@@H]1/C=C(\C)C[C@H](C)C[C@H](OC)[C@H]2O[C@@](O)(C(=O)C(=O)N3CCCC[C@H]3C(=O)O[C@H](/C(C)=C/[C@@H]3CC[C@@H](O)[C@H](OC)C3)[C@H](C)[C@@H](O)CC1=O)[C@H](C)C[C@@H]2OC` [FK506], the “stimulation of hair growth (in words)” value with hair growth is on record as “stimulates hair growth in a dose-dependent manner”.
